Measured values published in US20260183320A1, “METHOD FOR TREATING CANCER BY COMBINING ALKYLATING AGENT PRODRUG AND CELL CYCLE INHIBITOR” (ASCENTAWITS PHARMACEUTICALS, LTD., priority 2022, published 2026).

Experiments:
[1] = tested on: wild-type p53-expressing (H460) cell line; assay: CTG cell proliferation assay, H460 cell line; assay type: cell-based; settings: for IC50: Homo sapiens, 72 h
Procedure: (§1) Each CTG cell proliferation assay included the steps as follows: • 1) An H460 or HT29 cell suspension was added to a 96-well plate at 100 μL per well so that each well contained 2000 or 10000 cells. • 2) The cells were incubated overnight at 37° C. in an incubator with 5% CO2. • 3) Treatment with Compounds
(§2) Combination therapy: 1 μL of adavosertib (at four concentrations), AZD7762 (at four concentrations), palbociclib (at four concentrations) or ceralasertib (at three concentrations) was added to each well and shaken gently until homogeneous mixing.
(§3) 7) Chemiluminescence was read for 1000 ms on a multimode microplate reader. • 8) IC50 (half-maximal inhibitory concentration) values of the compounds were calculated using the GraphPad Prism 5 software. 1.

[2] = tested on: p53-deficient (HT29) cell line; assay: CTG cell proliferation assay, HT29 cell line; assay type: cell-based; settings: for IC50: Homo sapiens, 72 h
Procedure: as §1, §2, §3

[3] = H460 (wild-type p53), all concentrations
[4] = H460 (wild-type p53), both drugs at low concentrations
[5] = HT29 (p53-deficient), various concentrations, also low

O=[N+]([O-])c1ccc(C(OP(=O)(N2CC2)N2CC2)C(F)(F)F)cc1Oc1ccc(-c2ccc(F)cc2)c(F)c1 (stereo not shown) [AST] was tested, and the “additive cytotoxic effect in combination therapy with AZD7762” value (from here on “additive cytotoxic effect … with AZD7762”) ([1]; H460 (wild-type p53), AZD7762 160 nM) was “certain additive cytotoxic effects”, the “additive cytotoxic effect in combination therapy with adavosertib” value (shortened to “additive cytotoxic effect … with adavosertib”) [1, 3] was “did not exhibit any additive toxic effects” and the “additive cytotoxic effect in combination therapy with palbociclib” value (from here on “additive cytotoxic effect … with palbociclib”) [1, 3] was “did not exhibit any significant additive cytotoxic effects”. For the same compound, the “additive cytotoxic effect … with AZD7762” value [1, 4] was “not significant”, the “additive cytotoxic effect … with adavosertib” value [1, 4] was “not significant” and the “additive cytotoxic effect in combination therapy with ceralasertib” value (shortened to “additive cytotoxic effect … with ceralasertib”) [1, 4] was “not significant”. For the same compound, the “additive cytotoxic effect … with AZD7762” value ([1]; H460 (wild-type p53), medium and high concentrations) was “certain additive cytotoxic effects”, the “additive cytotoxic effect … with ceralasertib” value ([1]; H460 (wild-type p53), medium or high concentration) was “certain additive cytotoxic effects” and the “additive cytotoxic effect … with adavosertib” value ([1]; H460 (wild-type p53), medium or high concentrations) was “certain additive cytotoxic effects”. The “additive cytotoxic effect … with AZD7762” value ([1]; H460 (wild-type p53), other concentrations than 160 nM AZD7762) was “did not exhibit any additive cytotoxic effects”, the Ratio single/combo ([1]; H460, IC50 monotherapy / IC50 with 0.5 nM AZD7762) was 1.20 and the Ratio single/combo ([1]; H460, IC50 monotherapy / IC50 with 0.5 nM adavosertib) was 1.24. For the same compound, the Ratio single/combo ([1]; H460, IC50 monotherapy / IC50 with 6.4 nM AZD7762) was 1.00, the Ratio single/combo ([1]; H460, IC50 monotherapy / IC50 with 6.4 nM adavosertib) was 0.90 and the Ratio single/combo ([1]; H460, IC50 monotherapy / IC50 with 160 nM AZD7762) was 3.81. For the same compound, the Ratio single/combo ([1]; H460, IC50 monotherapy / IC50 with 160 nM adavosertib) was 1.19, the Ratio single/combo ([1]; H460, IC50 monotherapy / IC50 with 800 nM adavosertib) was 1.41 and the Ratio combo/single ([1]; H460, IC50 with 0.05 nM palbociclib / IC50 monotherapy) was 1.08. It also gave a Ratio combo/single ([1]; H460, IC50 with 0.64 nM palbociclib / IC50 monotherapy) of 1.35, a Ratio combo/single ([1]; H460, IC50 with 400 nM palbociclib / IC50 monotherapy) of 2.55 and an IC50 ([1]; NCI-H460, 72 h, H460, monotherapy) of 4.08 nM. For the same compound, the IC50 ([1]; NCI-H460, H460, with 0.05 nM palbociclib (2 h pretreatment)) was 4.39 nM, the IC50 ([1]; NCI-H460, H460, with 0.5 nM AZD7762 (2 h pretreatment)) was 3.4 nM and the IC50 ([1]; NCI-H460, H460, with 0.5 nM adavosertib (2 h pretreatment)) was 3.29 nM. The IC50 ([1]; NCI-H460, H460, with 0.64 nM palbociclib (2 h pretreatment)) was 5.5 nM, the IC50 ([1]; NCI-H460, H460, with 6.4 nM AZD7762 (2 h pretreatment)) was 4.08 nM and the IC50 ([1]; NCI-H460, H460, with 6.4 nM adavosertib (2 h pretreatment)) was 4.53 nM. It also gave an IC50 ([1]; NCI-H460, H460, with 160 nM AZD7762 (2 h pretreatment)) of 1.07 nM, an IC50 ([1]; NCI-H460, H460, with 160 nM adavosertib (2 h pretreatment)) of 3.44 nM and an IC50 ([1]; NCI-H460, H460, with 400 nM palbociclib (2 h pretreatment)) of 10.4 nM. For the same compound, the IC50 ([1]; NCI-H460, H460, with 800 nM adavosertib (2 h pretreatment)) was 2.89 nM, the “additive cytotoxic effect … with palbociclib” value ([2]; HT29 (p53-deficient), drugs at low concentrations) was “certain additive cytotoxic effects” and the “additive cytotoxic effect … with ceralasertib” value ([2]; HT29 (p53-deficient), various concentrations) was “significant additive cytotoxic effects”. The “additive cytotoxic effect … with AZD7762” value [2, 5] was “significant additive cytotoxic effects”, the “additive cytotoxic effect … with adavosertib” value [2, 5] was “significant additive cytotoxic effects” and the “additive cytotoxic effect … with palbociclib” value [2, 5] was “significant additive cytotoxic effects”. For the same compound, the Ratio single/combo ([2]; HT29, IC50 monotherapy / IC50 with 100 nM AZD7762) was 95.61, the Ratio single/combo ([2]; HT29, IC50 monotherapy / IC50 with 100 nM adavosertib) was 44.97 and the Ratio single/combo ([2]; HT29, IC50 monotherapy / IC50 with 130 nM AZD7762) was 105.70. The Ratio single/combo ([2]; HT29, IC50 monotherapy / IC50 with 130 nM adavosertib) was 95.54, the Ratio single/combo ([2]; HT29, IC50 monotherapy / IC50 with 160 nM AZD7762) was 107.78 and the Ratio single/combo ([2]; HT29, IC50 monotherapy / IC50 with 160 nM adavosertib) was 114.24. The IC50 ([2]; HT-29, 72 h, HT29, monotherapy) was 1370 nM, the IC50 ([2]; HT-29, HT29, with 50 nM palbociclib (2 h pretreatment)) was 1060 nM and the IC50 ([2]; HT-29, HT29, with 100 nM AZD7762 (2 h pretreatment)) was 14.3 nM. It also gave an IC50 ([2]; HT-29, HT29, with 100 nM adavosertib (2 h pretreatment)) of 30.5 nM, an IC50 ([2]; HT-29, HT29, with 130 nM AZD7762 (2 h pretreatment)) of 13 nM and an IC50 ([2]; HT-29, HT29, with 130 nM adavosertib (2 h pretreatment)) of 14.4 nM. It also gave an IC50 ([2]; HT-29, HT29, with 160 nM AZD7762 (2 h pretreatment)) of 12.7 nM, an IC50 ([2]; HT-29, HT29, with 160 nM adavosertib (2 h pretreatment)) of 12 nM and an IC50 ([2]; HT-29, HT29, with 1000 nM palbociclib (2 h pretreatment)) of 1740 nM. The IC50 ([2]; HT-29, HT29, with 5000 nM palbociclib (2 h pretreatment)) was 1570 nM.
